Reference: article PMC12332266 (Frontiers in Pharmacology, 2025)
Where two headings read alike, the source gives them in different places.

Assays:
[1] = test system: hiPSC-CM (iCell Cardiomyocytes^2); experiment: RTCA CardioECR assessment (impedance and electrophysiology parameters); conditions: for RTCA, MEC (CI): change ≥20%, Table 2
Experimental: (§1) Culture media change was performed every 2 days.
After seeding on fibronectin-coated xCELLigence ePlates (Agilent Technologies, Inc. Santa Clara, CA, USA), iCell^2 CM were monitored continuously through impedance electrodes. The following impedance parameters were measured: Cell Index (CI, measure of cell “health” and monolayer integrity), beating rate (BR) and amplitude (CI Amplitude, magnitude of contraction). Electrophysiology-like parameters (Field Potential Duration (FPD), considered as a surrogate for QT in in vivo studies, and Spike Amplitude (SA), depolarization induced by Na^+ channel opening) were measured starting from day 4–6, following the monolayer formation. […] All RTCA CardioECR data were double normalized (DMSO control and the baseline) with no further statistical group comparison for the normalized parameters. The variability of the data within the treatment groups was assessed by standard deviation.

[2] = test system: hiPSC-CM (iCell Cardiomyocytes^2); experiment: Intracellular miRNA expression by RT-qPCR in hiPSC-CM pellets after 72-hour treatment; conditions: for fold induction at 0.1 µM / fold induction at 0.3 µM / fold induction at 1 µM / fold induction at 3 µM: Homo sapiens, 72 h
Experimental: as §1
Total RNA was extracted from hiPSC-CM using the miRNeasy 96 Kit (Qiagen, Hilden, Germany) following the manufacturer’s recommendations. After the extraction, RNA purity was assessed by NanoDrop™ 8000 Spectrophotometer (Thermo Fisher Scientific Inc.). 5–10 ng/μL of RNA per sample were reverse transcribed and pre-amplified by using the TaqMan™ Advanced miRNA cDNA Synthesis Kit (Thermo Fisher Scientific Inc.). The synthesized cDNA was used for RT-qPCR with selected TaqMan™ assays (Thermo Fischer Scientific Inc.). RT-qPCR was carried out following the Applied Biosciences TaqMan miRNA expression assay protocol on a ViiA7 instrument (Thermo Fisher Scientific, Inc.). […] Therefore, to maximize the number of drugs and concentrations, explored in the same study, we pooled the triplicates for intracellular profiling of miRNAs. Therefore, no statistical analysis was performed on the data of miRNA profiling in the pellets of hiPSC-CM.
Following RTCA CardioECR assessment, hiPSC-CM cell pellets were collected, and total RNA was extracted and purified to investigate miRNAs upregulation by RT-qPCR. […] For the initial assessment of intracellular miRNAs in 12 different treatments, encompassing various drug classes, we used a panel of 17 miRNAs, which we selected from the publicly available data focusing mainly on in vitro models and structural cardiotoxicants (Supplementary Table S2).

[3] = ref extensive literature search, cited from earlier work
[4] = read-out: hsa-miR-7-5p fold change
[5] = read-out: hsa-miR-29a-5p fold change
[6] = read-out: hsa-miR-96-5p fold change
[7] = read-out: hsa-miR-126-3p fold change
[8] = read-out: hsa-miR-133b fold change
[9] = read-out: hsa-miR-146b-5p fold change
[10] = read-out: hsa-miR-182-5p fold change
[11] = read-out: hsa-miR-185-3p fold change
[12] = read-out: hsa-miR-187-3p fold change
[13] = read-out: hsa-miR-208b-3p fold change
[14] = read-out: hsa-miR-365a-5p fold change

## CC(C)C[C@H](NC(=O)[C@H](Cc1ccccc1)NC(=O)c1cnccn1)B(O)O [Bortezomib]
[1]; hiPSC-CM
  RTCA, MEC (CI): 0.03 µM
[1]; human, 72 h
  Beating Rate MEC: 0.1 µM
  Beating rate (BR) MEC: 0.1 µM
  Contractility Amplitude MEC: 0.1 µM
  Field Potential Duration MEC: 0.1 µM
  Spike Amplitude (SA) MEC: 0.1 µM
[2]
  miRNAs hiPSC-CM pellet, MEC overall: 0.01 µM
  miRNAs upregulated at the MEC overall (hiPSC-CM pellet): miR-126-3p, miR-182-5p, miR-185-3p, miR-187-3p, miR-7-5p
[3]; Supplementary Table 1
  Cmax total: 140 to 2800 nM
[3]; Table 1
  Cmax total: 140 to 2800 nM

## CCC1=C[C@@H]2CN(C1)Cc1c([nH]c3ccccc13)[C@@](C(=O)OC)(c1cc3c(cc1OC)N(C)[C@H]1[C@@](O)(C(=O)OC)[C@H](OC(C)=O)[C@]4(CC)C=CCN5CC[C@]31[C@@H]54)C2 [Vinorelbine]
[1]; hiPSC-CM, 72-hour treatment, lowest concentration causing at least 20% change from baseline
  Cell index (CI) MEC: 0.1 µM
[1]; hiPSC-CM
  RTCA, MEC (CI): 0.1 µM
[1]; human, 72 h
  Beating Rate MEC: 1 µM
  Beating rate (BR) MEC: 1 µM
  Cell Index MEC: 0.1 µM
  Contractility Amplitude MEC: 0.1 µM
  Field Potential Duration MEC: 1 µM
  RTCA, MEC (BR): 1 µM
  Spike Amplitude (SA) MEC: 0.1 µM
[2]
  intracellular miRNA upregulation in hiPSC-CM, in words: smallest fold change
  miRNAs hiPSC-CM pellet, MEC overall: 0.1 µM
  miRNAs upregulated at the MEC overall (hiPSC-CM pellet): miR-34a-5p, miR-146b-5p
[2]; [4]
  fold induction at 0.1 µM: 1
  fold induction at 0.3 µM: 1.4
  fold induction at 1 µM: 0.9
  fold induction at 3 µM: 1.8
[2]; [5]
  fold induction at 0.1 µM: 0.4
  fold induction at 0.3 µM: 1.1
  fold induction at 1 µM: 0.2
  fold induction at 3 µM: 0.9
[2]; [6]
  fold induction at 0.1 µM: 1.3
  fold induction at 0.3 µM: 4.8
  fold induction at 1 µM: 0.9
[2]; [7]
  fold induction at 0.1 µM: 1.4
  fold induction at 0.3 µM: 2
  fold induction at 1 µM: 0.6
  fold induction at 3 µM: 0.2
[2]; [8]
  fold induction at 0.1 µM: 0.1
  fold induction at 0.3 µM: 0.2
  fold induction at 1 µM: 0.3
  fold induction at 3 µM: 0.1
[2]; [9]
  fold induction at 0.1 µM: 3.1
  fold induction at 0.3 µM: 1.1
  fold induction at 1 µM: 0.1
  fold induction at 3 µM: 0.2
[2]; [10]
  fold induction at 0.1 µM: 0.7
  fold induction at 1 µM: 0.1
[2]; [11]
  fold induction at 0.1 µM: 1.2
  fold induction at 0.3 µM: 1.9
  fold induction at 1 µM: 0.9
  fold induction at 3 µM: 0.6
[2]; [12]
  fold induction at 0.1 µM: 1.1
  fold induction at 0.3 µM: 0.9
  fold induction at 1 µM: 0.8
  fold induction at 3 µM: 0.3
[2]; [13]
  fold induction at 0.1 µM: 0.8
  fold induction at 0.3 µM: 1.7
  fold induction at 1 µM: 0.7
  fold induction at 3 µM: 0.8
[2]; [14]
  fold induction at 0.3 µM: 2.4
  fold induction at 1 µM: 0.1
[3]; Supplementary Table 1
  Cmax total: 811 nM
[3]; Table 1
  Cmax total: 810 nM
